Assay results from patent publication US20150065693A1, “COMPOSITION FOR PROPHYLAXIS OR TREATMENT OF VASCULAR OR CARDIAC VALVULAR CALCIFICATION COMPRISING DIPEPTIDYL PEPTIDASE-4 INHIBITOR” (THE ASAN FOUNDATION, priority 2013, published 2015).

Columns and labels:
[1] = test system: CD26/DPP-4 mRNA; assay: CD26/DPP-4 mRNA expression by RT-PCR in vascular smooth muscle cells; type: cell-based, mice; conditions: extent in proportion to the concentration of DETA-NO, FIG. 4
[2] = test system: calcification of the cardioaorta; assay: In vivo calcium deposition in the cardioaorta by Osteosense fluorescence; conditions: control and eNOS KO transgenic mice, FIG. 11
Description: To determine whether the calcification of the cardioaorta decreased by the CD26 inhibitor, a CD26 inhibitor drug, DPPIV inhibitor sitagliptin, was administered to the control and the eNOS KO transgenic mice. Thereafter, the intensity of fluorescence was monitored by injecting Osteosense into the mice to check the in vivo calcium deposition. In FIG. 11, the red intensity of fluorescence represents a level of calcification.

[3] = test system: vascular smooth muscle cells from the eNOS KO mice; assay: Osteogenic differentiation of vascular smooth muscle cells (ALP, AR, VK staining); type: cell-based; conditions: FIG. 10B
Description: The aorta extracted with the heart was washed with a serum-free M199 medium (Cellgro), and cut into small pieces. Thereafter, 20% fetal calf serum, and 3 mg/mL collagenase (Sigma) were added to the M199 medium, and […] for 3 hours in a 37° C. water bath. Then, it was confirmed that the separated cells were vascular smooth muscle cells using an α-SM actin monoclonal antibody (Sigma). The separated vascular smooth muscle cells were divided at a 30% concentration, and the medium used was replaced with osteogenic medium (Osteogenic Basal Medium, Osteogenic SingleQuots, Lonza, USA) after 24 hours. The medium was replaced every 3 days, and the cell culture was performed for 28 days. The concentration of sCD26/DPP-4 was measured upon medium replacement.
For the wild-type mice and eNOS KO mice, it was determined whether the promotion of ossification of vascular smooth muscle cells was induced by CD26 using an ALP staining method as a staining method used at the initial calcification stage, an AR staining method as a staining method used at the middle calcification stage, and a VK staining method as a staining method used at the late calcification stage.
Also, the vascular smooth muscle cells from the eNOS KO mice were treated with CD26 and a CD26 inhibitor, diprotin A, respectively.

`NCCN(CCN)/[N+]([O-])=N/O` [DETA-NO] was tested, and the “expression of the CD26/DPP-4 mRNA” value [1] was “decreased”.

With `N[C@@H](CC(=O)N1CCn2c(nnc2C(F)(F)F)C1)Cc1cc(F)c(F)cc1F` [sitagliptin] the “calcification in the cardioaorta” value [2] was “slowly proceeded”.

For diprotin A, the osteogenic differentiation [3] was “inhibited”.
